Laboratory results reported in US20240246946A1, “MODULATORS OF TREX1” (Constellation Pharmaceuticals, Inc., priority 2021, published 2024).

Legend:
full length human TREX1 = target: T1, full length human TREX1 (Homo sapiens, UniProt Q9NSU2); test: hTREX1 Biochemical Assay (fluorescence, dsDNA substrate degradation); conditions: biochemical, read-out: hTREX1 IC50
T1 construct: N-terminally His-Tev tagged full length human TREX1; made in house; host or cells: E. coli
T1 sequence (Q9NSU2 1-314): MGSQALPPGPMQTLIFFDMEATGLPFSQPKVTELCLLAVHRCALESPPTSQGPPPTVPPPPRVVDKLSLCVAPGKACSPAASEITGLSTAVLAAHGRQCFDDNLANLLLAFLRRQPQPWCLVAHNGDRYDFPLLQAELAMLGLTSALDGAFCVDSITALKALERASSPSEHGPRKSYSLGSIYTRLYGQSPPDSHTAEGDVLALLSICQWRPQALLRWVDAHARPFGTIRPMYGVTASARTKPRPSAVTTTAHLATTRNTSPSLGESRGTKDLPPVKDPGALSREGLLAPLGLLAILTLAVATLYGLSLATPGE
In short: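 Cleavage of 60 nM TEX615/quencher-labelled dsDNA in pH 7.4 Tris buffer with 5 mM MgCl2, 1.0% DMSO, run 18 hours at 25° C, EDTA-quenched; fluorescence read-out.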

full length mouse TREX1 = target: T2, full length mouse TREX1 (Mus musculus, UniProt Q91XB0); test: mTREX1 Biochemical Assay (fluorescence, dsDNA substrate degradation); conditions: biochemical, read-out: mTREX1 IC50
T2 construct: N-terminally His-Tev tagged full length mouse TREX1; made in house; host or cells: E. coli
T2 sequence (Q91XB0 1-314): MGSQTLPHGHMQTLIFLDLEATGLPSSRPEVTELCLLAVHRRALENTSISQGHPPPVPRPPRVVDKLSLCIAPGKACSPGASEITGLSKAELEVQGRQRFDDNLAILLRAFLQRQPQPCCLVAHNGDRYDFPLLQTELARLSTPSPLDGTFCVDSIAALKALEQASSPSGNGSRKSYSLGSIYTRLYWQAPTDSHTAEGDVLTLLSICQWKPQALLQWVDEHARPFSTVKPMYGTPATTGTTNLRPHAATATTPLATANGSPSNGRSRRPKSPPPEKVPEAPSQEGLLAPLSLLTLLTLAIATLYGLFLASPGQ
In short: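 Reaction run 18 h at 25° C. with 60 nM TEX615/quencher-labelled dsDNA and 6 pM mouse TREX1 in Tris buffer (pH 7.4, 5 mM MgCl2, 1.0% DMSO), enzyme having sat 4 h with compound across 10 concentrations. EDTA quench; substrate degradation measured as fluorescence increase.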

[1] = target: T3, human TREX2 (residues M44-A279) (Homo sapiens, UniProt Q9BQ50); test: hTREX2 Biochemical Assay (fluorescence, dsDNA substrate degradation); conditions: biochemical selectivity for hTREX1 vs hTREX2
T3 construct: human TREX2 (residues M44-A279, expressed in E. coli); made in house; host or cells: E. coli
T3 sequence (Q9BQ50 44-279 isoform Q9BQ50-1): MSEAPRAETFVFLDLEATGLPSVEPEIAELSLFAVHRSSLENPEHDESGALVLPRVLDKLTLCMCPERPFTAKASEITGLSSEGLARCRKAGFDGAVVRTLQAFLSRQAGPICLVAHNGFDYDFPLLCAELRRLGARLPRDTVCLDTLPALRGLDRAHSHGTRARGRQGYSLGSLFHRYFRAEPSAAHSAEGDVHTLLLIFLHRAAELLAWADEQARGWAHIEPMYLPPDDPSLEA
In short: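 N-His-Tev E. coli enzyme (50 pM) pre-incubated with compound 4 h at 25 °C, then 60 nM TEX615/quencher dsDNA added; 18 h at 25 °C, pH 7.4 Tris buffer with 5 mM MgCl2, 1.0% DMSO. EDTA-quenched; fluorescence 570 ex/615 em from liberated fluorophore, 10-point dose-response.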

| IC50 (full length human TREX1) [nM] | IC50 (full length mouse TREX1) [nM] | hTREX1 vs hTREX2 selectivity [1] | SMILES |
| --- | --- | --- | --- |
| > 10 | > 10 | A (A = <25 fold selective for hTREX1) | CC(c1nc(C(=O)Nc2cnoc2)c(O)c(=O)n1C)C(c1ccccc1Cl)n1cccn1 (single isomer, unassigned) [Example 45 D1E2] |
| > 10 | > 10 | A (A = <25 fold selective for hTREX1) | Cc1nn(C)c(C)c1C(c1cc(F)ccc1Cl)C(C)c1nc(C(=O)Nc2cnoc2)c(O)c(=O)n1C (single isomer, unassigned) [Example 154 D1E2] |
| > 10 | > 10 | A (A = <25 fold selective for hTREX1) | CC(c1nc(C(=O)Nc2cnoc2)c(O)c(=O)n1C)C(c1ccccc1Cl)c1nncn1C (single isomer, unassigned) [Example 152 D1E2] |
| > 10 | > 10 | A (A = <25 fold selective for hTREX1) | CCn1cc(C(c2cc(F)ccc2Cl)C(C)c2nc(C(=O)Nc3cnoc3)c(O)c(=O)n2C)cn1 (single isomer, unassigned) [Example 60 D2E2] |
| > 10 | > 10 | A (A = <25 fold selective for hTREX1) | CC(c1nc(C(=O)Nc2cnoc2)c(O)c(=O)n1C)C(c1nnn(C)n1)c1ccccc1C#N (single isomer, unassigned) [Example 79 D2E2] |
| > 10 | > 10 | A (A = <25 fold selective for hTREX1) | Cc1cc(C)n(C(c2ccccc2Cl)C(C)c2nc(C(=O)Nc3cnoc3)c(O)c(=O)n2C)n1 (single isomer, unassigned) [Example 136 D1E1] |
| > 10 | > 10 | C (C = >50 fold selective for hTREX1) | CC(c1nc(C(=O)Nc2cnoc2)c(O)c(=O)n1C)C(c1ccccc1C#N)c1nnnn1C (single isomer, unassigned) [Example 131 D2E1] |
| > 10 | > 10 | A (A = <25 fold selective for hTREX1) | CC(c1nc(C(=O)Nc2cnoc2)c(O)c(=O)n1C)C(c1cnn(CC2COC2)c1)c1cc(F)ccc1Cl (single isomer, unassigned) [Example 94 D1E2] |
| > 10 | > 10 | C (C = >50 fold selective for hTREX1) | CC(c1nc(C(=O)Nc2cnoc2)c(O)c(=O)n1C)C(c1cnn(CCN2CCN(C)CC2)c1)c1ccccc1C#N (single isomer, unassigned) [Example 32 D2E1] |
| > 10 | > 10 | A (A = <25 fold selective for hTREX1) | Cc1cn(C(c2ccccc2Cl)C(C)c2nc(C(=O)Nc3cnoc3)c(O)c(=O)n2C)cn1 (single isomer, unassigned) [Example 142 D1E1] |
| > 10 | > 10 | A (A = <25 fold selective for hTREX1) | Cc1ncc(C(c2cc(F)ccc2C#N)C(C)c2nc(C(=O)Nc3cnoc3)c(O)c(=O)n2C)nc1C (single isomer, unassigned) [Example 124 D2E1] |
| > 10 | 1 to 10 | A (A = <25 fold selective for hTREX1) | CC(c1nc(C(=O)Nc2cnoc2)c(O)c(=O)n1C)C(c1cnn(CCOC(F)(F)F)c1)c1cc(F)ccc1Cl (single isomer, unassigned) [Example 98 D1E2] |
| > 10 | > 10 | A (A = <25 fold selective for hTREX1) | Cc1cnc(C(c2cc(F)ccc2Cl)C(C)c2nc(C(=O)Nc3cnoc3)c(O)c(=O)n2C)cn1 (single isomer, unassigned) [Example 117 D1E1] |
| > 10 | > 10 | A (A = <25 fold selective for hTREX1) | Cc1nn(C)c(C)c1C(c1ccccc1C#N)C(C)c1nc(C(=O)Nc2cnoc2)c(O)c(=O)n1C (single isomer, unassigned) [Example 78 D1E2] |
| > 10 | > 10 | A (A = <25 fold selective for hTREX1) | Cc1n[nH]c(C)c1C(c1ccccc1C#N)C(C)c1nc(C(=O)Nc2cnoc2)c(O)c(=O)n1C (single isomer, unassigned) [Example 95 D2E2] |
| 1 to 10 | > 10 | A (A = <25 fold selective for hTREX1) | COCCn1cc(C(c2cc(F)ccc2Cl)C(C)c2nc(C(=O)Nc3cnoc3)c(O)c(=O)n2C)cn1 (single isomer, unassigned) [Example 97 D1E2] |
| > 10 | > 10 | A (A = <25 fold selective for hTREX1) | Cc1ccnn1C(c1ccccc1C#N)C(C)c1nc(C(=O)Nc2cnoc2)c(O)c(=O)n1C (single isomer, unassigned) [Example 138 D1E2] |
| > 10 | > 10 | A (A = <25 fold selective for hTREX1) | COCCn1ncc(C(c2cc(F)ccc2Cl)C(C)c2nc(C(=O)Nc3cnoc3)c(O)c(=O)n2C)c1C (single isomer, unassigned) [Example 108 D1E2] |
| 1 to 10 | > 10 | A (A = <25 fold selective for hTREX1) | CC(c1nc(C(=O)Nc2cnoc2)c(O)c(=O)n1C)C(c1cnn(C(C)(C)CC#N)c1)c1cc(F)ccc1Cl (single isomer, unassigned) [Example 100 D1E2] |
| > 10 | > 10 | A (A = <25 fold selective for hTREX1) | CC(c1nc(C(=O)Nc2cnoc2)c(O)c(=O)n1C)C(c1cnn(CC2COC2)c1)c1ccccc1Cl (single isomer, unassigned) [Example 88 D2E2] |
| > 10 | > 10 | A (A = <25 fold selective for hTREX1) | Cc1cc(C(c2cc(F)ccc2Cl)C(C)c2nc(C(=O)Nc3cnoc3)c(O)c(=O)n2C)n(C)n1 (single isomer, unassigned) [Example 113 D1E2] |

| SMILES | IC50 (full length human TREX1) [nM] | IC50 (full length mouse TREX1) [nM] | hTREX1 vs hTREX2 selectivity [1] |
| --- | --- | --- | --- |
| CC(c1nc(C(=O)Nc2cnoc2)c(O)c(=O)n1C)C(c1ccccc1)c1cccnc1C#N (single isomer, unassigned) [Example 155 D1E1] | > 10 | > 10 | B (B = 25 to 50-fold selective for hTREX1) |
| CC(c1nc(C(=O)Nc2cnoc2)c(O)c(=O)n1C)C(c1cnccn1)c1ccccc1C#N (single isomer, unassigned) [Example 66 D1E1] | < 1 | < 1 | B (B = 25 to 50-fold selective for hTREX1) |
| CCn1cc(C(c2ccccc2C#N)C(C)c2nc(C(=O)Nc3cnoc3)c(O)c(=O)n2C)cn1 (single isomer, unassigned) [Example 13 D1E2] | > 10 | > 10 | B (B = 25 to 50-fold selective for hTREX1) |
| CC(c1nc(C(=O)Nc2cnoc2)c(O)c(=O)n1C)C(c1ccccc1Cl)c1nncn1C (single isomer, unassigned) [Example 152 D2E1] | > 10 | > 10 | B (B = 25 to 50-fold selective for hTREX1) |
| Cc1nc(C)c(C(c2ccccc2C#N)C(C)c2nc(C(=O)Nc3cnoc3)c(O)c(=O)n2C)nc1C (single isomer, unassigned) [Example 122 D1E2] | > 10 | > 10 | B (B = 25 to 50-fold selective for hTREX1) |
| CC(c1nc(C(=O)Nc2cnoc2)c(O)c(=O)n1C)C(c1cnn(C)c1)c1ccc(O)cc1C#N (single isomer, unassigned) [Example 80 D2E2] | 1 to 10 | > 10 | B (B = 25 to 50-fold selective for hTREX1) |
| COCCn1ncc(C(c2cc(F)ccc2C#N)C(C)c2nc(C(=O)Nc3cnoc3)c(O)c(=O)n2C)c1C (single isomer, unassigned) [Example 104 D2E2] | 1 to 10 | > 10 | B (B = 25 to 50-fold selective for hTREX1) |
